{"source": "patent US10064873B2", "about": "“Compounds and compositions for treating HIV with derivatives of Betulin” (GlaxoSmithKline LLC, priority 2011, dated 2018)"}
{"tested_on": "HIV NL4-3 wt", "test": "MT4 antiviral assay, NL4-3 strain wild type", "type": "cell-based, HIV-1", "conditions": "Human immunodeficiency virus 1, NL43, MT4, read-out: EC50 NL4-3 wt (nM)", "units": {"EC50": "nM"}}
{"smiles": "CC(C)C1=C2[C@H]3CC[C@@H]4[C@@]5(C)CC[C@H](OC(=O)CC(C)(C)C(=O)O)C(C)(C)[C@@H]5CC[C@@]4(C)[C@]3(C)CC[C@@]2([C@H](CN(CCN(C)C)Cc2ccc(Cl)cc2)OC(=O)CC(C)(C)C(=O)O)CC1=O", "note": "[Example 2, 4-((R)-1-((3aR,5aR,5bR,7aR,9S,11aR,11bR,13aS)-9-((3-Carboxy-3-methylbutanoyl)oxy)-1-isopropyl-5a,5b,8,8,11a-pentamethyl-2-oxo-3,3a,4,5,5a,5b,6,7,7a,8,9,10,11,11a,11b,12,13,13a-octadecahydro-2H-cyclopenta[a]chrysen-3a-yl)-2-((4-chlorobenzyl)(2-(dimethylamino)ethyl)amino)ethoxy)-2,2-dimethyl-4-oxobutanoic acid]", "EC50": 5.2}
{"smiles": "CC(C)C1=C2[C@H]3CC[C@@H]4[C@@]5(C)CC[C@H](OC(=O)CC(C)(C)C(=O)O)C(C)(C)[C@@H]5CC[C@@]4(C)[C@]3(C)CC[C@@]2([C@@H](CN(CCN(C)C)Cc2ccc(Cl)cc2)OC(=O)CC(C)(C)C(=O)O)CC1=O", "note": "[Example 4, 4-((S)-1-((3aR,5aR,5bR,7aR,9S,11aR,11bR,13aS)-9-((3-Carboxy-3-methylbutanoyl)oxy)-1-isopropyl-5a,5b,8,8,11a-pentamethyl-2-oxo-3,3a,4,5,5a,5b,6,7,7a,8,9,10,11,11a,11b,12,13,13a-octadecahydro-2H-cyclopenta[a]chrysen-3a-yl)-2-((4-chlorobenzyl)(2-(dimethylamino)ethyl)amino)ethoxy)-2,2-dimethyl-4-oxobutanoic acid]", "EC50": 10.1}
{"smiles": "CC(C)C1=C2[C@H]3CC[C@@H]4[C@@]5(C)CC[C@H](OC(=O)CC(C)(C)C(=O)O)C(C)(C)[C@@H]5CC[C@@]4(C)[C@]3(C)CC[C@@]2(CCNCc2ccccc2)CC1=O", "note": "[Example 6, 4-(((3aR,5aR,5bR,7aR,9S,11aR,11bR,13aS)-3a-(2-(Benzylamino)ethyl)-1-isopropyl-5a,5b,8,8,11a-pentamethyl-2-oxo-3,3a,4,5,5a,5b,6,7,7a,8,9,10,11,11a,11b,12,13,13a-octadecahydro-2H-cyclopenta[a]chrysen-9-yl)oxy)-2,2-dimethyl-4-oxobutanoic acid]", "EC50": 0.5}
{"smiles": "CC(C)C1=C2[C@H]3CC[C@@H]4[C@@]5(C)CC[C@H](OC(=O)CC(C)(C)C(=O)O)C(C)(C)[C@@H]5CC[C@@]4(C)[C@]3(C)CC[C@@]2(CCNCc2cccc(Cl)c2)CC1=O", "note": "[Example 7, 4-(((3aR,5aR,5bR,7aR,9S,11aR,11bR,13aS)-3a-(2-((3-Chlorobenzyl)amino)ethyl)-1-isopropyl-5a,5b,8,8,11a-pentamethyl-2-oxo-3,3a,4,5,5a,5b,6,7,7a,8,9,10,11,11a,11b,12,13,13a-octadecahydro-2H-cyclopenta[a]chrysen-9-yl)oxy)-2,2-dimethyl-4-oxobutanoic acid]", "EC50": 6.1}
{"tested_on": "HIV NL4-3 wt", "test": "MT4 antiviral assay, NL4-3 strain wild type", "type": "cell-based, HIV-1", "conditions": "Human immunodeficiency virus 1, NL43; MT4 cells; read-out: EC50 NL4-3 wt", "units": {"EC50": "nM"}}
{"smiles": "CC(C)C1=C2[C@H]3CC[C@@H]4[C@@]5(C)CC[C@H](OC(=O)CC(C)(C)C(=O)O)C(C)(C)[C@@H]5CC[C@@]4(C)[C@]3(C)CC[C@@]2([C@@H](O)CN2CCN(C)CC2)CC1", "note": "(racemic) [Example 65, 4-(((3aS,5aR,5bR,7aR,9S,11aR,11bR,13aS)-3a-((R)-1-hydroxy-2-(4-methylpiperazin-1-yl)ethyl)-1-isopropyl-5a,5b,8,8,11a-pentamethyl-3,3a,4,5,5a,5b,6,7,7a,8,9,10,11,11a,11b,12,13,13a-octadecahydro-2H-cyclopenta[a]chrysen-9-yl)oxy)-2,2-dimethyl-4-oxobutanoic acid]", "EC50": 83.8}
{"smiles": "CC(=O)N(Cc1cccc(Cl)c1)C[C@H](O)[C@@]12CC[C@]3(C)[C@H](CC[C@@H]4[C@@]5(C)CC[C@H](OC(=O)CC(C)(C)C(=O)O)C(C)(C)[C@@H]5CC[C@]43C)C1=C(C(C)C)C(=O)C2", "note": "[Compound 46]", "EC50": 11.1}
{"smiles": "CC(C)C1=C2[C@H]3CC[C@@H]4[C@@]5(C)CC[C@H](OC(=O)CC(C)(C)C(=O)O)C(C)(C)[C@@H]5CC[C@@]4(C)[C@]3(C)CC[C@@]2([C@H](O)CN(CCN(C)C)Cc2ccccc2Cl)CC1=O", "note": "[Compound 51]", "EC50": 3.5}
{"smiles": "CC(C)C1=C2[C@H]3CC[C@@H]4[C@@]5(C)CC[C@H](OC(=O)CC(C)(C)C(=O)O)C(C)(C)[C@@H]5CC[C@@]4(C)[C@]3(C)CC[C@@]2([C@H](CNCc2ccc(Cl)cc2)OC(=O)CC(C)(C)C(=O)O)CC1=O", "note": "[Example 1, 4-((R)-1-((3aR,5aR,5bR,7aR,9S,11aR,11bR,13aS)-9-((3-carboxy-3-methylbutanoyl)oxy)-1-isopropyl-5a,5b,8,8,11a-pentamethyl-2-oxo-3,3a,4,5,5a,5b,6,7,7a,8,9,10,11,11a,11b,12,13,13a-octadecahydro-2H-cyclopenta[a]chrysen-3a-yl)-2-((4-chlorobenzyl)amino)ethoxy)-2,2-dimethyl-4-oxobutanoic acid]", "EC50": 41.1}
{"smiles": "CC(C)C1=C2[C@H]3CC[C@@H]4[C@@]5(C)CC[C@H](OC(=O)CC(C)(C)C(=O)O)C(C)(C)[C@@H]5CC[C@@]4(C)[C@]3(C)CC[C@@]2([C@@H](CNCc2ccc(Cl)cc2)OC(=O)CC(C)(C)C(=O)O)CC1=O", "note": "[Example 3, 4-[(1S)-1-[(1R,2R,5R,10S,13R,14R, 17S,19R)-17-[(3-carboxy-3,3-dimethylpropanoyl)oxy]-1,2,14,18,18-pentamethyl-7-oxo-8-(propan-2-yl)pentacyclo[11.8.0.0^ {2,10}.0^{5,9}.0^{14,19}]henicos-8-en-5-yl]-2-{[(4-chlorophenyl)methyl]amino}ethoxy]-2,2-dimethyl-4-oxobutanoic acid]", "EC50": 61.7}
{"smiles": "CC(C)C1=C2[C@H]3CC[C@@H]4[C@@]5(C)CC[C@H](OC(=O)CC(C)(C)C(=O)O)C(C)(C)[C@@H]5CC[C@@]4(C)[C@]3(C)CC[C@@]2(CCNCc2ccc(Cl)cc2)CC1=O", "note": "[Example 5, 4-(((3aR,5aR,5bR,7aR,9S,11aR,11bR,13aS)-3a-(2-((4-Chlorobenzyl)amino)ethyl)-1-isopropyl-5a,5b,8,8,11a-pentamethyl-2-oxo-3,3a,4,5,5a,5b,6,7,7a,8,9,10,11,11a,11b,12,13,13a-octadecahydro-2H-cyclopenta[a]chrysen-9-yl)oxy)-2,2-dimethyl-4-oxobutanoic acid]", "EC50": 2.6}
{"smiles": "CC(C)C1=C2[C@H]3CC[C@@H]4[C@@]5(C)CC[C@H](OC(=O)CC(C)(C)C(=O)O)C(C)(C)[C@@H]5CC[C@@]4(C)[C@]3(C)CC[C@@]2(CCNCc2cccc(Cl)c2F)CC1=O", "note": "[Example 8, 4-(((3aR,5aR,5bR,7aR,9S,11aR,11bR,13aS)-3a-(2-((3-Chloro-2-fluorobenzyl)amino)ethyl)-1-isopropyl-5a,5b,8,8,11a-pentamethyl-2-oxo-3,3a,4,5,5a,5b,6,7,7a,8,9,10,11,11a,11b,12,13,13a-octadecahydro-2H-cyclopenta[a]chrysen-9-yl)oxy)-2,2-dimethyl-4-oxobutanoic acid]", "EC50": 5.9}
{"smiles": "CC(C)C1=C2[C@H]3CC[C@@H]4[C@@]5(C)CC[C@H](OC(=O)CC(C)(C)C(=O)O)C(C)(C)[C@@H]5CC[C@@]4(C)[C@]3(C)CC[C@@]2(CCNC2(c3ccc(Cl)cc3)CC2)CC1=O", "note": "[Example 9, 4-(((3aR,5aR,5bR,7aR,9S,11aR,11bR,13aS)-3a-(2-((1-(4-chlorophenyl)cyclopropyl)amino)ethyl)-1-isopropyl-5a,5b,8,8,11a-pentamethyl-2-oxo-3,3a,4,5,5a,5b,6,7,7a,8,9,10,11,11a,11b,12,13,13a-octadecahydro-2H-cyclopenta[a]chrysen-9-yl)oxy)-2,2-dimethyl-4-oxobutanoic acid]", "EC50": 12.3}
